The values below come from PubChem BioAssay (NCI).

The term TGI denotes the concentration giving total growth inhibition. A high value points to lower sensitivity of the cells. The GI50 is the concentration that inhibits growth by half.

Assay in all cases: DTP human tumour cell line panel, 48 h
For assay [1], the system named is MDA-N.
For assay [2], the system named is M19-MEL melanoma.
For assay [3], the system named is DMS 273 small cell lung.
Assay [4] relates to DMS 114 small cell lung.
Assay [5] relates to LXFL 529 NSCLC.
The subject of assay [6] is KM20L2 colon.
The subject of assay [7] is HOP-18 NSCLC.
In assay [8] the test system is XF 498 CNS.
For assay [9], the system named is RXF-631 renal.
Assay [10] has as its system SN12K1 renal.

Several values for one entry are separate records, joined by “and”; a condition that tells them apart may be missing. Equal entries are not always repeated.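 1) Cells in 96-well plates. 2) Compound, 48 h, 5 concentrations. 3) Linear interpolation between surrounding doses. 4) Unreached endpoint = highest concentration. GI50 = concentration required for 50% inhibition of growth. TGI: concentration producing complete growth inhibition.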

For the compound `NC(=O)/C=C/NC(=O)/C=N\O`, the TGI in [1] is greater than 100 µM.

Compound `CCCCCC/C=C\CCCCCCCCCC1=CC(=O)C=C(OC)C1=O` returned a TGI in assay [1] of 21.8 µM.

As for `COc1ccc(C(=O)/C=C/c2ccc(OCC(=O)N3CCN(c4ccccc4)CC3)cc2)cc1`, the TGI in assay [2], in assay [3], in assay [4], in [1], in assay [5] and in assay [6] was greater than 100 µM each time. The values for the TGI in [7] and in assay [8] were greater than 100 µM and greater than 93.9 µM, respectively.

`CCCCCCCCCCCCN(O)C(=O)c1ccccc1`: the TGI in assay [2], in [5], in assay [6], in assay [7] and in [8] was greater than 100 µM throughout.

For `Cn1c2c(c3ccccc31)CCN(CCCCN1CCN(c3cccc(Cl)c3)CC1)C2=O`, the TGI in assay [2] is 25.5 µM; in [3], 22.9 µM; in assay [4] it was 10.7 µM; in assay [5], 23.7 µM; in assay [6], 15.5 µM; in assay [7] it was greater than 100 µM. Further, the TGI in assay [8] worked out at 28 µM.

Turning to `O=C1C2c3[nH]c4ccccc4c3[C@@H]3CCCCC3C2C(=O)N1c1ccccc1` (some centres not stated), the TGI came out at 34.8 µM in assay [2]; 35.3 µM in assay [3]; 58.4 µM in [4]; 34.2 µM in assay [9]; 39.6 µM in assay [5].

On to `OC(c1ccccn1)C1CNc2ccccc21` (configuration not stated), for which the TGI in assay [2], in assay [3], in assay [4], in [5], in assay [6] and in assay [8] was greater than 100 µM each time.

Turning to `O=C(CC(=O)C1CCOC1=O)C(=O)Nc1ccc(Cl)cc1Cl` (configuration not stated), the TGI in assay [2], in assay [3], in assay [4], in [5], in assay [6] and in assay [8] was greater than 100 µM throughout.

For `CCc1nc(N)nc(N)c1-c1ccc(NCCc2ccccc2)c([N+](=O)[O-])c1`, the TGI in [1] was greater than 57.5 µM.

Take `Cc1ccc(C)c(NC(=O)CCc2nc(=S)[nH][nH]2)c1`: the TGI in assay [2], in [3], in [4], in [9], in assay [5] and in assay [6] was greater than 100 µM in each case. The TGI in assay [7] and in assay [8] was greater than 100 µM each time.

For `COC(OC)[C@@H](C)[C@H](O)[C@](C)(O)C1OC(C)(C)OC(C(C)C=C(C)C)C1C` (some centres not stated), the TGI in assay [2], in assay [3], in assay [4], in assay [5], in assay [6] and in assay [7] was greater than 100 µM each time. In assay [8], this compound had a TGI greater than 100 µM.

As to `CC(=O)NNc1nc(C)c(C(/C=C/c2ccc(Cl)cc2)=N/NC(=O)C[N+](C)(C)C)s1`, the TGI in assay [2], in assay [3], in assay [4], in [5], in [6] and in assay [7] was greater than 100 µM in each case.

As to `C[C@H]1C(Oc2ccc(O)cc2)OC2OC3(C)CCC4[C@H](C)CCC1C24OO3` (some centres not stated), in assay [1], the GI50 is 11.1 µM and the concentration for total growth inhibition (TGI) is 26.4 µM.

`CNC1C(O)C(OC2C(N)CC(N)C(OC3OC(C(C)O)C(O)C(O)C3N)C2O)OCC1(C)O` (configuration not stated) came in with a TGI in [1] greater than 100 µM.

With `COc1cc(-c2cc(=O)c3cc(C)c(C)c(C(=O)O)c3o2)cc(OC)c1OC`, the TGI in assay [2], in assay [3], in assay [4], in [9], in assay [5] and in assay [6] was greater than 100 µM throughout. In [8], this compound came in with a TGI greater than 100 µM.

As to `O=C1c2c(O)cc(O)cc2OC(c2ccc(O)cc2O)C1O` (configuration not stated), the TGI in assay [1] is greater than 100 µM.

Take `COCCOCC(=O)N(CCn1ccc(NC(c2ccccc2)(c2ccccc2)c2ccccc2)nc1=O)CCn1cnc2nc(N)[nH]c(=O)c21`: the TGI in [3], in assay [4], in assay [9], in [5], in assay [6] and in [7] was greater than 100 µM in each case.

For the compound `O=C(O)Cn1c(=O)[nH]c(=O)c2c1ncn2Cc1ccccc1`, the TGI in assay [2], in assay [3], in assay [4], in assay [9], in assay [5] and in [6] was greater than 100 µM each time. The compound also showed a TGI in assay [8] greater than 100 µM.

On to `CC/C(C)=C1\OC(=O)C(C)C(O)C(Cc2cccnc2)NC(=O)C(NC(=O)c2ncccc2O)C(C)OC1=O` (configuration not stated), for which, in assay [1], the TGI was greater than 100 µM.

As for `Nc1nc(N)c2nc(CNc3ccc(C(=O)NC(CCCNC(=O)c4ccccc4C(=O)O)C(=O)O)cc3)cnc2n1` (configuration not stated), the GI50 was 0.122 µM in [2]; < 0.01 µM and 0.000327 µM in assay [4]; 0.00127 µM in [1]; 24.8 µM and 98 µM in [7]. The TGI in assay [2], in assay [3], in assay [4], in assay [1], in assay [5] and in [6] was greater than 100 µM throughout. Also, the TGI in assay [7], in assay [10] and in assay [8] was greater than 100 µM throughout.

In assay [1], `COc1cccc2[nH]c(-c3ccccn3)nc12` had a TGI greater than 100 µM.

In the case of `Cc1nc(Nc2ccc([N+](=O)[O-])cc2)sc1C(/C=C/c1ccc(N(C)C)cc1)=N/NC(=O)c1ccccc1`, the TGI in [2], in assay [4], in [9], in assay [5], in assay [6] and in assay [7] was greater than 100 µM in each case. For the same compound, the TGI in [8] is greater than 100 µM.
